What was measured:
[1] = target: T1, Human recombinant MAO-B (hMAO-B) (Homo sapiens, UniProt P27338); experiment: MAO-B inhibition assay (Amplex Red fluorescence, benzylamine substrate); format: biochemical; conditions: single dose 10 µM
T1 construct: purchased Sigma-Aldrich; host or cells: insect cells
T1 sequence (P27338 1-520): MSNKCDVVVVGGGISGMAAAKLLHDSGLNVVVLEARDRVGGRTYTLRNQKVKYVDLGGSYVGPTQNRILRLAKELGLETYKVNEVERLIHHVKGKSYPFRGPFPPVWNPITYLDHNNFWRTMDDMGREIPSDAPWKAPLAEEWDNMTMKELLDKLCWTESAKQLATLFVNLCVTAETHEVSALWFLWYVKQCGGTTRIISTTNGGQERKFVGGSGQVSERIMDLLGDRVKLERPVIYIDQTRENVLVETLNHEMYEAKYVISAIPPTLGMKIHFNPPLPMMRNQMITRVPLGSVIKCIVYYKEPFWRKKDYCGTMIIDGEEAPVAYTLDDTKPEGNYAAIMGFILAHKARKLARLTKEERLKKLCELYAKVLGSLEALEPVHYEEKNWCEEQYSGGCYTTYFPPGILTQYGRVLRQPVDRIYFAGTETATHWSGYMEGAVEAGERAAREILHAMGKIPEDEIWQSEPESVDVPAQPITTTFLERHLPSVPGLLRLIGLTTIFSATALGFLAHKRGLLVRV
Experimental: The biological evaluation of the tested compounds over both MAO-A and MAO-B was performed following the previously reported method. The MAO activity was measured in relative fluorescence units (RFU) evoked by peroxidase-catalyzed oxidation of Amplex Red® to resorufin, in which H2O2 generated by MAO reaction was used as the electron donor. Human recombinant MAO-A (hMAO-A) and MAO-B (hMAO-B) enzymes expressed in insect cells were obtained from Sigma-Aldrich. The 2 μL of test compound in DMSO (final concentration: 1–10 μM) was treated with 98 μL of hMAO enzyme solution in 50 mM sodium phosphate buffer (pH 7.4, final protein amounts: ~1.25 μg protein/well for MAO-A and ~2.5 μg protein/well for MAO-B) on 96-well black plate and incubated for 15 min at 37 °C. Then, 100 μL of reaction working solution which is a mixed solution of 400 μM Amplex Red® (Cayman, final concentration: 200 μM), 2 U/mL horseradish peroxidase (Sigma-Aldrich, final concentration: 1 U/mL) and 2 mM substrate (p-tyramine for MAO-A, benzylamine for MAO-B, Sigma-Aldrich, final concentration: 1 mM) in 50 mM sodium phosphate buffer (pH 7.4) were added and incubated for 20 min at 37 °C in the dark. The fluorescent intensity was quantified using a microplate reader (SpectraMax®i3, Molecular Device) with an excitation at 545 nm and an emission at 590 nm. The 50% inhibitory concentrations (IC50) of compounds were determined as the mean ± S.E.M. in triplicate from the dose-response inhibition curves using SigmaPlot® 13.0 (Systat Software Inc., San Jose, CA, USA).

MAO-B = conditions: single dose 10 μM, previous study; cited from earlier work

| Structure (SMILES) | inhibition at 10 µM [1] | melting point | % MAO-B Inhibition (MAO-B) |
| --- | --- | --- | --- |
| CCNC(=O)Nc1ccc2c(ccn2C(=O)c2cccc(F)c2)c1 [Compound 4a, 1-Ethyl-3-(1-(3-fluorobenzoyl)-1H-indol-5-yl)urea] | 46.2 ± 1.1% | – | – |
| CCOC(=O)CNC(=O)Nc1ccc2c(ccn2C(=O)c2cccc(F)c2)c1 [Compound 4b, Ethyl ((1-(3-fluorobenzoyl)-1H-indol-5-yl)carbamoyl)glycinate] | 9.9 ± 1.5% | 203.3 to 204.3 °C | – |
| O=C(NCCCl)Nc1ccc2c(ccn2C(=O)c2cccc(F)c2)c1 [Compound 4c, 1-(2-Chloroethyl)-3-(1-(3-fluorobenzoyl)-1H-indol-5-yl)urea] | 26.6 ± 0.6% | 191.3 to 192.3 °C | – |
| O=C(Nc1ccc2c(ccn2C(=O)c2cccc(F)c2)c1)NC1CCCCC1 [Compound 4d, 1-Cyclohexyl-3-(1-(3-fluorobenzoyl)-1H-indol-5-yl)urea] | 44 ± 0.8% | 222.7 to 223.7 °C | – |
| O=C(Nc1ccc([N+](=O)[O-])cc1)Nc1ccc2c(ccn2C(=O)c2cccc(F)c2)c1 [Compound 4e, 1-(1-(3-Fluorobenzoyl)-1H-indol-5-yl)-3-(4-nitrophenyl)urea] | 47.9 ± 1.6% | 249.1 to 250.1 °C | – |
| COc1ccc(NC(=O)Nc2ccc3c(ccn3C(=O)c3cccc(F)c3)c2)cc1 [Compound 4f, 1-(1-(3-Fluorobenzoyl)-1H-indol-5-yl)-3-(4-methoxyphenyl)urea] | 32.5 ± 1.4% | – | – |
| COc1cc(NC(=O)Nc2ccc3c(ccn3C(=O)c3cccc(F)c3)c2)cc(OC)c1 [Compound 4g, 1-(3,5-Dimethoxyphenyl)-3-(1-(3-fluorobenzoyl)-1H-indol-5-yl)urea] | 55.7 ± 0.2% | 235.6 to 236.6 °C | – |
| O=C(Nc1cc(Cl)cc(Cl)c1)Nc1ccc2c(ccn2C(=O)c2cccc(F)c2)c1 [Compound 4h, 1-(3,5-Dichlorophenyl)-3-(1-(3-fluorobenzoyl)-1H-indol-5-yl)urea] | 38.6 ± 1.6% | – | – |
| O=C(Nc1ccc(F)cc1)Nc1ccc2c(ccn2C(=O)c2cccc(F)c2)c1 [Compound 4i, 1-(1-(3-Fluorobenzoyl)-1H-indol-5-yl)-3-(4-fluorophenyl)urea] | 37 ± 0.9% | 264.3 to 265.3 °C | – |
| O=C(Nc1ccc(Cl)c(Cl)c1)Nc1ccc2c(ccn2C(=O)c2cccc(F)c2)c1 [Compound 4j, 1-(3,4-Dichlorophenyl)-3-(1-(3-fluorobenzoyl)-1H-indol-5-yl)urea] | 53.5 ± 0.3% | – | – |
| O=C(Nc1ccc(Cl)c(C(F)(F)F)c1)Nc1ccc2c(ccn2C(=O)c2cccc(F)c2)c1 [Compound 4k, 1-(4-Chloro-3-(trifluoromethyl)phenyl)-3-(1-(3-fluorobenzoyl)-1H-indol-5-yl)urea] | 42.1 ± 1.7% | 210.9 to 211.9 °C | – |
| O=C(NCCc1ccc(F)cc1)Nc1ccc2c(ccn2C(=O)c2cccc(F)c2)c1 [Compound 4l, 1-(1-(3-Fluorobenzoyl)-1H-indol-5-yl)-3-(4-fluorophenethyl)urea] | 42 ± 0.6% | 231.5 to 232.5 °C | – |
| O=C(Nc1ccc(Oc2ccccc2)cc1)Nc1ccc2c(ccn2C(=O)c2cccc(F)c2)c1 [Compound 4m, 1-(1-(3-Fluorobenzoyl)-1H-indol-5-yl)-3-(4-phenoxyphenyl)urea] | 38.1 ± 0.5% | 235.2 to 236.2 °C | – |
| O=C(Nc1ccc(N2CCOCC2)cc1)Nc1ccc2c(ccn2C(=O)c2cccc(F)c2)c1 [Compound 4n, 1-(1-(3-Fluorobenzoyl)-1H-indol-5-yl)-3-(4-morpholinophenyl)urea] | 32.9 ± 0.3% | – | – |
| CCOC(=O)NC(=S)Nc1ccc2c(ccn2C(=O)c2cccc(F)c2)c1 [Compound 5a, 1-Ethoxycarbonyl-3-(1-(3-fluorobenzoyl)-1H-indol-5-yl)thiourea] | 15.5 ± 1.1% | 199.4 to 200.4 °C | – |
| O=C(c1cccc(F)c1)n1ccc2cc(NC(=S)NCCCl)ccc21 [Compound 5b, 1-(2-Chloroethyl)-3-(1-(3-fluorobenzoyl)-1H-indol-5-yl)thiourea] | 45.6 ± 1.2% | 221.5 to 222.5 °C | – |
| O=C(c1cccc(F)c1)n1ccc2cc(NC(=S)Nc3ccc(N4CCOCC4)cc3)ccc21 [Compound 5c, 1-(1-(3-Fluorobenzoyl)-1H-indol-5-yl)-3-(4-morpholinophenyl)thiourea] | 43.9 ± 1.1% | 192.7 to 193.7 °C | – |

| Structure (SMILES) | inhibition at 10 µM [1] | melting point | % MAO-B Inhibition (MAO-B) |
| --- | --- | --- | --- |
| O=C(c1cccc(F)c1)n1ccc2cc(NC(=S)NCCN3CCOCC3)ccc21 [Compound 5d, 1-(1-(3-Fluorobenzoyl)-1H-indol-5-yl)-3-(2-morpholinoethyl)thiourea] | 46.8 ± 0.2% | – | – |
| O=C(c1cccc(F)c1)n1ccc2cc(NC(=S)NCCN3CCCCC3)ccc21 [Compound 5e, 1-(1-(3-Fluorobenzoyl)-1H-indol-5-yl)-3-(2-(piperidin-1-yl)ethyl)thiourea] | 44.7 ± 0.5% | 187.1 to 188.1 °C | – |
| O=C(c1cccc(F)c1)n1ccc2cc(NC(=S)NCc3ccco3)ccc21 [Compound 5f, 1-(1-(3-Fluorobenzoyl)-1H-indol-5-yl)-3-(furan-2-ylmethyl)thiourea] | 34.1 ± 0.7% | 152.6 to 153.6 °C | – |
| O=C(c1cccc(F)c1)n1ccc2cc(NC(=S)Nc3ccc([N+](=O)[O-])cc3)ccc21 [Compound 5g, 1-(1-(3-Fluorobenzoyl)-1H-indol-5-yl)-3-(4-nitrophenyl)thiourea] | 30.6 ± 0.9% | – | – |
| COc1cc(NC(=S)Nc2ccc3c(ccn3C(=O)c3cccc(F)c3)c2)cc(OC)c1 [Compound 5h, 1-(3,5-Dimethoxyphenyl)-3-(1-(3-fluorobenzoyl)-1H-indol-5-yl)thiourea] | 32.5 ± 0.5% | 171.1 to 172.1 °C | – |
| O=C(c1cccc(F)c1)n1ccc2cc(NC(=S)Nc3ccc(Cl)c(Cl)c3)ccc21 [Compound 5i, 1-(3,4-Dichlorophenyl)-3-(1-(3-fluorobenzoyl)-1H-indol-5-yl)thiourea] | 59.8 ± 0.4% | 193.4 to 194.4 °C | – |
| O=C(c1cccc(F)c1)n1ccc2cc(NC(=S)Nc3cccnc3)ccc21 [Compound 5j, 1-(1-(3-Fluorobenzoyl)-1H-indol-5-yl)-3-(pyridin-3-yl)thiourea] | 51.1 ± 0.4% | 144.9 to 145.9 °C | – |
| O=C(Nc1ccc2c(ccn2C(=O)c2cccc(F)c2)c1)c1ccnc([N+](=O)[O-])c1 [Compound 6a, N-(1-(3-Fluorobenzoyl)-1H-indol-5-yl)-2-nitroisonicotinamide] | 26.8 ± 1.3% | 278.1 to 279.1 °C | – |
| CCOC(=O)Nc1ccc2c(ccn2C(=O)c2cccc(F)c2)c1 [Compound 6b, Ethyl (1-(3-fluorobenzoyl)-1H-indol-5-yl)carbamate] | 33.8 ± 2.3% | 136.5 to 137.5 °C | – |
| CCOC(=O)C(=O)Nc1ccc2c(ccn2C(=O)c2cccc(F)c2)c1 [Compound 6c, Ethyl 2-((1-(3-fluorobenzoyl)-1H-indol-5-yl)amino)-2-oxoacetate] | 35.5 ± 1.5% | – | – |
| O=C(Nc1ccc2c(ccn2C(=O)c2cccc(F)c2)c1)c1ccc(Cl)c(Cl)c1 [Compound 6d, 3,4-Dichloro-N-(1-(3-fluorobenzoyl)-1H-indol-5-yl)benzamide] | 53 ± 0.3% | 237.6 to 238.6 °C | – |
| O=C(Nc1ccc2c(ccn2C(=O)c2cccc(F)c2)c1)c1coc2ccccc2c1=O [Compound 6e, N-(1-(3-fluorobenzoyl)-1H-indol-5-yl)-4-oxo-4H-chromene-3-carboxamide] | 59.6 ± 0.3% | 226.6 to 227.6 °C | – |
| COC(=O)c1ccc2c(ccn2C(=O)c2cccc(F)c2)c1 [Compound 7a, Methyl 1-(3-fluorobenzoyl)-1H-indole-5-carboxylate] | 49.8 ± 0.3% | 103.4 to 104.4 °C | – |
| O=C(Nc1ccc(F)c(Cl)c1)c1ccc2[nH]ccc2c1 [Compound 8c, N-(3-chloro-4-fluorophenyl)-1H-indole-5-carboxamide] | 34.2 ± 0.2% | – | – |
| O=C(NCc1ccc2c(c1)OCO2)c1ccc2[nH]ccc2c1 [Compound 8d, N-(benzo[d][1,3]dioxol-5-ylmethyl)-1H-indole-5-carboxamide] | 15.3 ± 0.8% | 131.6 to 132.6 °C | – |
| Cn1ccc2cc(NC(=O)c3cnccn3)ccc21 [VII] | – | – | 49.68% |
